Entries after “also recorded” stand apart in the source; their conditions may differ.
What was measured:
[1] = test system: constrictive mouse model of trigeminal neuralgia; assay: Mechanical allodynia (Von Frey filament) after constriction of the maxillary nerve; format: in vivo; conditions: for mechanical allodynia (sensitivity to crude touch): WT mice, i.p. daily for two days before surgery and daily after behavior testing, sulforaphane, exemestane, letrozole 10 mg/kg, JQ-1 40 mg/kg, ascorbate 100 mg/kg, vs vehicle; for persistence of effects after treatment: daily i.p. dosing just after behavior testing
Procedure: Constriction of the Maxillary Nerve Constriction of the maxillary division of trigeminal nerve was performed as previously described (See Benedetti, A., et al., Biochimica Et Biophysica Acta Bba—Lipids Lipid Metabolism 620, 281-296 (1980) and Vos, B., et al J Neurosci 14, 2708-2723 (1994)). The procedure was performed under direct visualization and control with a surgical microscope. Mice were first anesthetized with ketamine (100 mg/kg, i.p.) and xylazine (12.5 mg/kg, i.p.) and monitored by pinching the skin between the toes with forceps and monitoring for withdrawal. Mice were restrained with adhesive tape to a sterilized polystyrene board. Upon sufficient anesthesia, the scalp was shaved and an anterior to posterior skin incision was made at the midline to expose the nasal and maxillary bones. The maxillary nerve was exposed and carefully dissected free from the surrounding connective tissue. The distal end of the maxillary nerve was then loosely constricted using 8-0 silk sutures as a ligature. The sutures were tied using a slip knot followed by a normal knot, after which any remaining suture was cut free. The incision was then closed with a 4-0 silk suture. In the sham procedure, the left maxillary nerve was exposed but not constricted. Mice were monitored and rehydrated until fully recovered from anesthesia.
Pharmacologic Treatments Mice were dosed with either sulforaphane (10 mg/kg, i.p.), exemestane (10 mg/kg, i.p.), letrozole (10 mg/kg, i.p.), (+)-JQ-1 (40 mg/kg, i.p.), (−)-JQ-1 (40 mg/kg, i.p.), or ascorbate (100 mg/kg, i.p.) as indicated below. Mice were first dosed daily for two days before surgery and again daily just after behavior testing. For local exemestane treatment, exemestane (5 μL, 25 μg total) was applied directly to the maxillary nerve. Mice received a single dose during surgery. Mice were dosed with AM-0902 (30 mg/kg, p.o.). Mice were treated with AM-0902 were dosed 30 min prior to behavior testing. Mice were dosed with tamoxifen (75 mg/kg, i.p.). Mice were dosed once every 24 hrs over 5 consecutive days. Behavioral and molecular tests were only performed 7 or more days after the final tamoxifen injection.
Mechanical Allodynia Mechanical allodynia was assessed in C57BL/6J, TRPA1^+/+, TRPA1^−/−, Keap1(f/f), and Keap1(f/f/CMV-CreER mice using a Von Frey filament as previously outlined (See Benedetti, A., et al., Biochimica Et Biophysica Acta Bba—Lipids Lipid Metabolism 620, 281-296 (1980) and Vos, B., et al J Neurosci 14, 2708-2723 (1994)). Animals were placed individually in transparent plastic boxes and allowed to acclimate to the environment for at least 30 min before testing. After habituation, a 0.04 g force Von Frey filament was used to stimulate the territory innervated by the maxillary nerve, including the vibrissal skin pad. Each mouse's response to the filament was scored from 0-4 on the scale below. Each mouse was scored ten times per day. Changes in mechanical allodynia were considered relative to sham- or vehicle-treated animal controls. Behavior was assessed concomitantly or in a blocked manner with consideration for both genotype and treatment. • 0—no response • 1—non-defensive response to the stimulus (e.g., mouse non-defensively explores filament) • 2—withdrawal response (e.g., mouse turns head away from filament) • 3—escape/attack response (e.g., mouse moves body away from filament and assumes crouching position against the box wall; actively attacks filament by biting and/or grabbing) • 4—asymmetric face grooming (e.g., mouse wipes stimulated facial area in uninterrupted series of at least three face-wash strokes)

maxillary nerves = assay: Myelin basic protein (MBP) immunostaining of maxillary nerves; format: in vivo, mouse; conditions: ten days post-surgery; sulforaphane 10, exemestane 10, JQ-1 40 mg/kg, i.p. daily; vs vehicle-treated ligated nerves
Procedure: Histology Maxillary nerves from mice were dissected and fixed in cold 4% formaldehyde (v/v) overnight at 4° C. Tissues were then cryoprotected through a series of 10%, 20%, and 30% sucrose (w/v) gradients for 24 hrs each at 4° C. Tissues were then embedded in Optimal Cutting Temperature compound (OCT) and sectioned in 20 μm intervals with a cryostat, after which the sections were dried onto slides and kept at […]. Sections were then processed for immunohistochemistry.
Immunohistochemistry was performed as previously described (Vasavda C et al., Cell Chem Biol 2019; 26(10):1450-1460.e7, incorporated herein by reference in its entirety). Briefly, sections were post-fixed with 4% parafomaldehyde for 15 min at 25° C. and then permeabilized with 100% methanol for 7 min at −20° C. The slides were then pre-incubated in blocking solution (10% normal goat serum (ThermoFisher Scientific)) for 30 min at 25° C. Sections were incubated overnight at 4° C. with the appropriate primary antibodies in blocking solution. Sections were washed and incubated with the appropriate secondary antibodies diluted 1:250 in blocking solution for 1 h at 25° C. Tissues were then mounted with ProLong Gold Antifade Mountant with DAPI (Invitrogen).
MBP immunostaining: Mice were first dosed daily with either sulforaphane (10 mg/kg, i.p.), exemestane (10 mg/kg, i.p.), JQ-1 (40 mg/kg, i.p.), or the appropriate vehicle for two days before surgical ligation of the maxillary nerve, after which they were dosed every 24 h for 10 days thereafter. MBP immunostaining was performed ten days post-surgery. MBP stains were interpreted by a pathologist to morphologically assess the degree of damage from nerve injury and response to drug treatment. Antibodies: primary antibodies: chicken anti-MBP (1:500); secondary antibodies: goat anti-chicken (Alexa 488, A32931 Invitrogen).

## C=C1C[C@@H]2[C@H](CC[C@]3(C)C(=O)CC[C@@H]23)[C@@]2(C)C=CC(=O)C=C12 [exemestane, 6-methylenandrosta-1,4-diene-3,17-dione]
[1]
  mechanical allodynia (sensitivity to crude touch): much less sensitive; also recorded: lowered
  persistence of effects after treatment: 24 h
[1]; mouse, in vivo
  duration of analgesic effect: persists over the course of days to weeks
[1]; single local treatment, exemestane 25 μg/site applied directly to the maxillary nerve during surgery
  mechanical allodynia: lessened
Maxillary nerves
  nerve architecture by myelin basic protein staining: better preserved nerve architecture with increased density of myelinated axons of varying sizes

## Cc1sc2c(c1C)C(c1ccc(Cl)cc1)=N[C@@H](CC(=O)OC(C)(C)C)c1nnc(C)n1-2 [JQ-1, (S)-tert-butyl 2-(4-(4-chlorophenyl)-2,3,9-trimethyl-6H-thieno[3,2-f][1,2,4]triazolo[4,3-a][1,4]diazepin-6-yl)acetate]
[1]
  mechanical allodynia (sensitivity to crude touch): much less sensitive
  persistence of effects after treatment: 24 h
[1]; listed as (+)-JQ-1
  mechanical allodynia (sensitivity to crude touch): lowered
Maxillary nerves
  nerve architecture by myelin basic protein staining: better preserved nerve architecture with increased density of myelinated axons of varying sizes

## C[S+]([O-])CCCCN=C=S (stereo not drawn) [sulforaphane, 1-isothiocyanato-4-(methanesulfinyl)butane]
[1]
  mechanical allodynia (sensitivity to crude touch): less sensitive
  persistence of effects after treatment: 24 h
Maxillary nerves
  nerve architecture by myelin basic protein staining: more normal architecture with myelinated axons of varying sizes

From patent publication US20250064846A1, “TREATMENT AND PREVENTION OF TRIGEMINAL NEURALGIA” (THE JOHNS HOPKINS UNIVERSITY, priority 2022, published 2025)
